No end group written: not given here.
Experiments:
ALDH2 = experiment: 2-D IEF phosphorylation of ALDH2 in hearts after I/R; parameters: species or system rat; settings: cardiac I/R
Procedure: (§1) An ex vivo model of acute ischemic heart damage was used, which involves a 30 min equilibration period, followed by 30 min of global ischemia, which in turn is followed by 60 min of reperfusion. The hearts were perfused with 1 μM TAT or TAT-conjugated peptide. Normoxic control hearts were subjected to 90 min perfusion in the absence of ischemia. Coronary effluent was collected to determine creatine phosphokinase (CPK) release during the first 30 min of the reperfusion period. At the end of the reperfusion period, hearts were sliced into 1-mm-thick transverse sections and incubated in triphenyltetrazolium chloride solution (TTC, 1% in phosphate buffer, pH 7.4) at 37° C. for 15 min. Infarct size was expressed as a percentage of the risk zone (equivalent to total LV muscle mass) (methods described in Brandman et al., 2007, J. Biol. Chem., 282:4113-4123; Inagaki et al., 2003, Circulation, 108:869-875).
2-D IEF/SDS polyacrylamide gel electrophoresis using rat heart samples was performed as previously described (Chen et al., 2008, Science, 321:1493-1495). 10% SDS gel electrophoresis and Western blotting were carried out by standard methods using PDK2 c-term rabbit (Abgent, Calif., USA), PDH subunit E1 alpha monoclonal (Invitrogen, Calif., USA) and ALDH2 goat (Santa Cruz Biotechnology, CA, USA) antibodies. […]

εPKC = target: T1, εPKC (Homo sapiens, UniProt Q02156); experiment: Proteinase K sensitivity of εPKC; type: binding
T1 sequence (Q02156 1-737): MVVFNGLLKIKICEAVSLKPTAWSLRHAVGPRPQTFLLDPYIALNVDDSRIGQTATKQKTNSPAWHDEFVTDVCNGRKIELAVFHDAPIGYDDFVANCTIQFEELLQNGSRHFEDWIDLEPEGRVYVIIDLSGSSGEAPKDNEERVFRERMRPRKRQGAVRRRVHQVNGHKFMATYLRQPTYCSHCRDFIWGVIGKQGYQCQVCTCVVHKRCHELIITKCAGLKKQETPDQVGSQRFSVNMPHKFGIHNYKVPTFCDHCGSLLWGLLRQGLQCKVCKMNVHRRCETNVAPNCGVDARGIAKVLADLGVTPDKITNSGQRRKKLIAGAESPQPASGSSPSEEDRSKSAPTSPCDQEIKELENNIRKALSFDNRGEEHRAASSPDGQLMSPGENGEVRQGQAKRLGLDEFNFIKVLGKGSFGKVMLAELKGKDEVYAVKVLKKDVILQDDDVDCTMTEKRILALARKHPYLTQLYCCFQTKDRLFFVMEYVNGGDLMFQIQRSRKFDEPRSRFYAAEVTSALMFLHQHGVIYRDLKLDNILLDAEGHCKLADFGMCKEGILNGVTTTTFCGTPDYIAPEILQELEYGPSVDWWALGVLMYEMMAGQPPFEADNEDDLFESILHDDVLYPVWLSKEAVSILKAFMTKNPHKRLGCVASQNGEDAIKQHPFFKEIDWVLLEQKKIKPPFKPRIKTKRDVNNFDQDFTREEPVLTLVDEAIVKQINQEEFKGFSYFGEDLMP

Drp1 = Drp1 phosphorylation in hearts subjected to I/R; parameters: species or system rat
Procedure: as §1

δPKC = target: T2, δPKC (Homo sapiens, UniProt Q05655); experiment: Proteinase K sensitivity of recombinant δPKC; type: binding; settings: non-TAT conjugated peptide; vs no peptide or control peptide ΨδRACK
T2 construct: purchased Invitrogen
T2 sequence (Q05655 whole entry): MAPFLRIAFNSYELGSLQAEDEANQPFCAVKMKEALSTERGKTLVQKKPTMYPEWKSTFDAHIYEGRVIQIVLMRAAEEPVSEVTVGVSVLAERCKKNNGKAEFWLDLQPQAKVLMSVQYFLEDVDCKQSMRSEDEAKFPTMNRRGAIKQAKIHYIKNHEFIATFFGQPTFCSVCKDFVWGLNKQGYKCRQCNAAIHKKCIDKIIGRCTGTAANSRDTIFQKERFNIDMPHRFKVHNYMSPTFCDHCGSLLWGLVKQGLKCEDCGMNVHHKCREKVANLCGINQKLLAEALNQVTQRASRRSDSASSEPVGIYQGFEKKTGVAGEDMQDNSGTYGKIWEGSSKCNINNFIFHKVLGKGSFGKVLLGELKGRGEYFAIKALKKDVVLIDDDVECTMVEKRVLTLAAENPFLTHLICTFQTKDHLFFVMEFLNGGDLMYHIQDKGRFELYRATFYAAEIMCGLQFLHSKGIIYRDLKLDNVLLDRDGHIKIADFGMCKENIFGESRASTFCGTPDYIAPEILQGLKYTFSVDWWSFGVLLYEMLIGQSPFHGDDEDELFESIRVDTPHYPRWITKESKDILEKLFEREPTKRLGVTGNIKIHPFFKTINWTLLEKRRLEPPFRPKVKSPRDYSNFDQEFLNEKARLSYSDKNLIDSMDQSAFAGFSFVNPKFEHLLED
Procedure: Human recombinant δPKC (Invitrogen, Calif., USA; 50 ng; 0.625 pmole) was incubated with ΨPDK (non-TAT conjugated, 1 nmole) prior to addition of proteinase K (0.05 μg/ml) in 20 mM Tris-HCl, pH 7.4 containing 1 μM DTT. The reaction was stopped as indicated by adding 5 mM PMSF.
(§2) Since ΨPDK is derived from a PDK-like sequence in δPKC (FIG. 1B), it was reasoned that this peptide should act as a competitive inhibitor, selective for δPKC phosphorylation of PDK. To test this hypothesis directly, an in vitro kinase assay in which the ability of δPKC to phosphorylate PDK is determined was used.

E1 subunit of PDH = experiment: 2-D IEF phosphorylation of PDH E1 subunit in hearts after I/R; parameters: species or system rat; settings: cardiac I/R
Procedure: as §1, with “108:869-875). […]” for “108:869-875).”
As described above, δPKC phosphorylation of PDK following cardiac ischemia and reperfusion leads to the phosphorylation and a decline in the activity of pyruvate dehydrogenase (PDH) (Churchill et al., 2005, Circ. Res., 97:78-85). […] Since ΨPDK is derived from the PDK homologous sequence in δPKC, it was next determined whether PDK phosphorylation is affected by ΨPDK treatment.

MARCKS = MARCKS phosphorylation in hearts subjected to I/R; parameters: species or system rat; settings: vs control peptide
Procedure: as §1

[1] = target: T3, δPKC phosphorylation of PDK (Homo sapiens, UniProt Q05655); experiment: In vitro kinase assay: δPKC phosphorylation of PDK2; type: biochemical; settings: recombinant δPKC and PDK2
T3 construct: purchased Invitrogen (δPKC); Abnova (PDK2)
T3 sequence (Q05655 whole entry): as above
Procedure: In vitro phosphorylation assay. To determine the level of PDK and Drp1 phosphorylation in presence of ΨPDK, δPKC recombinant protein (Invitrogen, Calif., USA; 200 ng) was incubated with or without peptides for 10 min, then 100 ng recombinant PDK2 (Abnova, Taiwan) or Drp1 (Abnova, Taiwan) were added for 20 min at 37° C. in 40 μl of kinase buffer (20 mM Tris-HCl, 20 mM MgCl2, 1 μM DTT, 25 μM ATP, 1 mM CaCl2) containing 5 μCi [γ^32P] ATP (4500 Ci/mmol, ICN) in the presence of the low amount of PKC activators, phosphatidylserine (PS, 1.25 μg) and 1,2 dioleoyl sn-glycerol (DG, 0.04 μg). The kinase assay was terminated by adding loading Laemmli buffer containing 5% SDS and the samples were loaded on a 10% PAGE-SDS polyacrylamide gel, and the levels of phosphorylated PDK2 protein were determined by exposing the nitrocellulose to autoradiography. The nitrocellulose was also reprobed using respective antibodies for loading controls.
as §2

ALSTER (not fully specified (C-terminus); also: TAT47-57 conjugated via disulfide) [ΨPDK, for cells and hearts conjugated to TAT47-57 via disulfide bond]
ALDH2 phosphorylation (ALDH2): neither ΨPDK nor δV1-1 affected ALDH2 phosphorylation | sensitivity of εPKC to proteolysis by PK (εPKC): unaffected | Drp1 phosphorylation (Drp1): caused an increase of Drp1 phosphorylation | stability of δPKC to proteinase K digestion (δPKC): more stable to PK digestion | phosphorylation of E1 subunit of PDH (E1 subunit of PDH): did not occur | I/R-induced MARCKS phosphorylation (MARCKS): an increase in I/R-induced MARCKS phosphorylation | inhibition of δPKC phosphorylation of PDK [1]: ~30%

— patent publication US10131691B2, “Compositions and methods for specific regulation of pyruvate dehydrogenase kinase” (THE BOARD OF TRUSTEES OF THE LELAND STANFORD JUNIOR …, priority 2011, dated 2018)
